For 12 compounds, IC50 results are on record in patent US7566712B2, “Biaryl piperazinyl-pyridine analogues” (Neurogen Corporation, priority 2003, dated 2009).

SMILES strings stand for the structures.

This experiment has as its target T1, human capsaicin receptor (Homo sapiens, UniProt Q8NER1).
T1 construct: pBK-CMV expression construct encoding the full length human capsaicin receptor; expressed in transfected cells
In words: Calcium mobilization assay, determination of antagonist activity (Example 6). It is filed as cell-based. Particulars: determined as described in Example 6 (calcium mobilization, antagonist activity); Table II. Summed up: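 Antagonism measured as inhibition of capsaicin-evoked (final concentration = EC50, from an 8-point 1 nM–3 μM curve) Fluo-3 calcium signal in stable hVR1-HEK293 cells. Test compounds at 1–5 μM final, 0.5–6 h dark preincubation at room temperature. IC50 = concentration giving 50% reduction versus agonist-only response.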
Background: A change in cytosolic calcium serves as a functional read-out for many receptors and channels.

T1 sequence (Q8NER1 whole entry): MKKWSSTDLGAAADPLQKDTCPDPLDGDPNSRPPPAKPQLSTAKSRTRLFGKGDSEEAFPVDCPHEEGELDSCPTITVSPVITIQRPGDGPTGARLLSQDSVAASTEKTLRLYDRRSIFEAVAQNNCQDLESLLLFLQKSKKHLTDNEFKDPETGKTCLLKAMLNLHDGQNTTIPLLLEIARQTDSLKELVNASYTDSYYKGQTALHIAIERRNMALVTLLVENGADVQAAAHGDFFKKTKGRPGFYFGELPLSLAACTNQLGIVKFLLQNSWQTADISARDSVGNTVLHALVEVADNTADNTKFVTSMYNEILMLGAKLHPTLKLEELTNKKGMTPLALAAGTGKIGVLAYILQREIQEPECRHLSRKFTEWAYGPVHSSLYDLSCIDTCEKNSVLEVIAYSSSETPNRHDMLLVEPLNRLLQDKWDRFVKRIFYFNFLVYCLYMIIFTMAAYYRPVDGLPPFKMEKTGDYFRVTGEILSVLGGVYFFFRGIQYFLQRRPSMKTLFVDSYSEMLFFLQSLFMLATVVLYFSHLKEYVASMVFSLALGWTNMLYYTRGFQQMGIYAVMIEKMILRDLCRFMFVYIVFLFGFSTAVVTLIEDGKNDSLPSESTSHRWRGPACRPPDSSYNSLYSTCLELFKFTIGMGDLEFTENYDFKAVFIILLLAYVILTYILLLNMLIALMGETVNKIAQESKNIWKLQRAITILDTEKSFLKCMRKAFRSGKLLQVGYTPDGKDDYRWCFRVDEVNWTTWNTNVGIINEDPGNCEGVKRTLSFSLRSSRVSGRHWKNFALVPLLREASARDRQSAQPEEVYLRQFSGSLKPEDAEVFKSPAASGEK

`Cc1cc(-c2cc(N3CCN(c4ncccc4C(F)(F)F)CC3)nc(-c3nccn3C(C)C)n2)ccc1F` [Example 684, 4-(4-fluoro-3-methylphenyl)-2-(1-isopropyl-1H-imidazol-2-yl)-6-{4-[3-(trifluoromethyl)pyridin-2-yl]piperazin-1-yl}pyrimidine]: the IC50 was no more than 1 µM. `Cc1cc(-c2cc(N3CCN(c4ncccc4C(F)(F)F)CC3)nc(N3CCCCS3(=O)=O)n2)ccc1F` [Example 685, 2-(4-(4-fluoro-3-methylphenyl)-6-{4-[3-(trifluoromethyl)pyridin-2-yl]piperazin-1-yl}pyrimidin-2-yl)-1,2-thiazinane 1,1-dioxide]: the IC50 was no more than 1 µM. With `Cc1cc(-c2cc(N3CCN(c4ncccc4C(F)(F)F)CC3)nc(C(C)O)n2)ccc1F` (stereo not drawn) [Example 686, 1-(4-(4-fluoro-3-methylphenyl)-6-{4-[3-(trifluoromethyl)pyridin-2-yl]piperazin-1-yl}pyrimidin-2-yl)ethanol], the IC50 was no more than 1 µM.

Take `Cc1cc(-c2cc(N3CCN(c4ncccc4C(F)(F)F)CC3)nc(N(CCO)C(C)C)n2)ccc1F` [Example 687, 2-[(4-(4-fluoro-3-methylphenyl)-6-{4-[3-(trifluoromethyl)pyridin-2-yl]piperazin-1-yl}pyrimidin-2-yl)(isopropyl)amino]ethanol]: the IC50 was no more than 1 µM. In the case of `Cc1cc(-c2cc(N3CCN(c4ncccc4C(F)(F)F)CC3)nc(N3CCN(S(C)(=O)=O)CC3)n2)ccc1F` [Example 688, 4-(4-fluoro-3-methylphenyl)-2-[4-(methylsulfonyl)piperazin-1-yl]-6-{4-[3-(trifluoromethyl)pyridin-2-yl]piperazin-1-yl}pyrimidine] it was no more than 1 µM; in that of `Cc1cc(-c2cc(N3CCN(c4ncccc4C(F)(F)F)CC3)nc(-c3ccncc3)n2)ccc1F` [Example 689, 4-(4-fluoro-3-methylphenyl)-2-pyridin-4-yl-6-{4-[3-(trifluoromethyl)pyridin-2-yl]piperazin-1-yl}pyrimidine], no more than 1 µM; in that of `Cc1cc(-c2cc(N3CCN(c4ncccc4C(F)(F)F)CC3)nc(NS(=O)(=O)C(C)C)n2)ccc1F` [Example 690, N-(4-(4-fluoro-3-methylphenyl)-6-{4-[3-(trifluoromethyl)pyridin-2-yl]piperazin-1-yl}pyrimidin-2-yl)propane-2-sulfonamide], no more than 1 µM.

Take `Cc1cc(-c2cc(N3CCN(c4ncccc4C(F)(F)F)CC3)nc(N(C)S(=O)(=O)C(C)C)n2)ccc1F` [Example 691, N-(4-(4-fluoro-3-methylphenyl)-6-{4-[3-(trifluoromethyl)pyridin-2-yl]piperazin-1-yl}pyrimidin-2-yl)-N-methytpropane-2-sulfonamide]: the concentration for half-maximal inhibition (IC50) is no more than 1 µM. In the case of `Cc1cc(-c2cc(N3CCN(c4ncccc4C(F)(F)F)CC3)nc(N(C(C)C)S(=O)(=O)C(C)C)n2)ccc1F` [Example 692, N-(4-(4-fluoro-3-methylphenyl)-6-{4-[3-(trifluoromethyl)pyridin-2-yl]piperazin-1-yl}pyrimidin-2-yl)-N-isopropylpropane-2-sulfonamide] it was no more than 1 µM; in that of `Fc1ccc(-c2cc(N3CCN(c4ncccc4C(F)(F)F)CC3)nc(NC3CCCC3)n2)cc1Cl` [Example 693, 4-(3-chloro-4-fluorophenyl)-N-cyclopentyl-6-{4-[3-(trifluoromethyl)pyridin-2-yl]piperazin-1-yl}pyrimidin-2-amine], no more than 1 µM; in that of `CNC[C@@H]1CCCN1c1nc(-c2ccc(F)c(Cl)c2)cc(N2CCN(c3ncccc3C(F)(F)F)CC2)n1` [Example 694, 1-[(2S)-1-(4-(3-chloro-4-fluorophenyl)-6-{4-[3-(trifluoromethyl)pyridin-2-yl]piperazin-1-yl}pyrimidin-2-yl)pyrrolidin-2-yl]-N-methylmethanamine], no more than 1 µM. For the compound `Cc1cccnc1N1CCN(c2cc(-c3ccc(F)c(Cl)c3)nc(N3CCCC3C)n2)CC1` (stereo not drawn) [Example 695, 4-(3-chloro-4-fluorophenyl)-6-[4-(3-methylpyridin-2-yl)piperazin-1-yl]-2-(2-methylpyrrolidin-1-yl)pyrimidine], the IC50 was no more than 1 µM.

The term IC50 denotes the midpoint of a concentration-inhibition curve.
